# Test results from publication PMC9271885 (eBioMedicine, 2022).
# Tested on: Vero E6 cells
# Assay: in vitro
# Conditions: African green monkey, 2 days
# Method: One day prior to infection, 96-well culture plates were seeded with 5×10^4 Vero E6 or Caco-2 cells in 100µL assay medium per well (containing 2.5% FCS). […] After 15min, a preset amount of virus diluted in 25µL of assay medium was added to the wells. This quantity of virus was calibrated so that the viral replication was still in the exponential growth phase for the readout, as previously described, [28], [29] which correspond here to 150 TCID50 per well. Four “cell control” wells were supplemented with 50µL of assay medium without any compounds or virus. On each culture plate, a positive control compound (Remdesivir, BLDpharm) was added in duplicate with eight 2-fold serial dilutions (0.16µM to 20µM). Plates were incubated for 2 days at 37°C prior to quantification of the viral genome by real-time RT-PCR as described below. For the determination of the 50% cytotoxic concentrations (CC50; compound concentration required to reduce by 50% cell viability), the same culture conditions were used, without addition of the virus, and cell viability was measured using CellTiter Blue® (Promega) following manufacturer's instructions. EC50, EC90 and CC50 were determined using logarithmic interpolation as previously described.[28] The selectivity index of the compounds was calculated as the ratio of the CC50 over the EC50.
smiles,measurement,value
"O=C(Nc1ncc([N+](=O)[O-])s1)c1ccccc1O [TIZ, tizoxanide]",CC50,> 100 µM
